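Interpolation was linear, between the two tested concentrations surrounding the appropriate level; five concentrations were tested over 48 hours in 96-well plates. GI50 marks 50% less growth.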 Calls of active or inactive are those of the source. No stated cut-off is given here; in the data, active = GI50 up to about 1.1 µM and inactive = higher. Starred links: 1 amine or outer side, 2 acyl side, 3 side chain; linkers in the order of their positions; H or OH if unused. Non-standard residues stand in square brackets, D forms with d. Residues, ends and D or L forms follow the SMILES beside them. *: point of attachment. X34 = CC(=O)N(C)SCC(N[*:1])C(=O)[*:2]; Cbz = O=C(OCc1ccccc1)*; Bn = c1ccc(C*)cc1; For = O=C*
Tests used:
Experiment in all cases: growth of human tumour cells (NCI), 48 h
786-0 = system: 786-0
A549 = system: A549
ACHN = system: ACHN
BT-549 = system: BT-549
CCRF-CEM = system: CCRF-CEM
COLO 205 = system: COLO 205
DU-145 = system: DU-145
EKVX = system: EKVX
HCC 2998 = system: HCC 2998
HCT-116 = system: HCT-116
HCT-15 = system: HCT-15
HL-60 = system: HL-60
HOP-62 = system: HOP-62
HOP-92 = system: HOP-92
HT-29 = system: HT-29
Hs-578T = system: Hs-578T
IGROV-1 = system: IGROV-1
K562 = system: K562
KM12 = system: KM12
LOX IMVI = system: LOX IMVI
M14 = system: M14
MCF7 = system: MCF7
MDA-MB-231 = system: MDA-MB-231
MDA-MB-435 = system: MDA-MB-435
MDA-N = system: MDA-N
MOLT-4 = system: MOLT-4
Malme-3M = system: Malme-3M
NCI-H226 = system: NCI-H226
NCI-H23 = system: NCI-H23
NCI-H460 = system: NCI-H460
NCI-H522 = system: NCI-H522
NCI/ADR-RES = system: NCI/ADR-RES
OVCAR-3 = system: OVCAR-3
OVCAR-4 = system: OVCAR-4
OVCAR-5 = system: OVCAR-5
OVCAR-8 = system: OVCAR-8
PC-3 = system: PC-3
RPMI-8226 = system: RPMI-8226
RXF 393 = system: RXF 393
SF-268 = system: SF-268
SF-295 = system: SF-295
SF-539 = system: SF-539
SK-MEL-28 = system: SK-MEL-28
SK-MEL-5 = system: SK-MEL-5
SK-OV-3 = system: SK-OV-3
SN12C = system: SN12C
SNB-19 = system: SNB-19
SNB-75 = system: SNB-75
SR = system: SR
SW-620 = system: SW-620
T47D = system: T47D
TK-10 = system: TK-10
U-251 = system: U-251
UACC-257 = system: UACC-257
UACC-62 = system: UACC-62
UO-31 = system: UO-31
SK-MEL-2 = system: SK-MEL-2
CAKI-1 = system: CAKI-1

Measured: GI50

C=C(C)CNC(=S)N(N)c1ccc(OC)cc1
inactive: 786-0 > 100 µM | A549 > 100 µM | ACHN 39.2 µM | BT-549 > 100 µM | CCRF-CEM 94 µM | COLO 205 > 100 µM | DU-145 > 100 µM | EKVX 82.2 µM | HCC 2998 > 100 µM | HCT-116 > 100 µM | HL-60 > 100 µM | HOP-62 > 100 µM | HOP-92 > 100 µM | HT-29 74.8 µM | Hs-578T > 100 µM | IGROV-1 58.6 µM | K562 39.6 µM | KM12 39.2 µM | LOX IMVI > 100 µM | M14 > 100 µM | MCF7 > 100 µM | MDA-MB-231 > 100 µM | MDA-MB-435 54.8 µM | MDA-N 99.3 µM | MOLT-4 96.6 µM | Malme-3M > 100 µM | NCI-H226 > 100 µM | NCI-H23 > 100 µM | NCI-H460 > 100 µM | NCI-H522 56.1 µM | NCI/ADR-RES > 100 µM | OVCAR-3 > 100 µM | OVCAR-4 > 100 µM | OVCAR-5 > 100 µM | OVCAR-8 > 100 µM | PC-3 > 100 µM | RPMI-8226 > 100 µM | RXF 393 > 100 µM | SF-268 55.3 µM | SF-295 > 100 µM | SF-539 > 100 µM | SK-MEL-28 > 100 µM | SK-MEL-5 > 100 µM | SK-OV-3 > 100 µM | SN12C 66.8 µM | SNB-19 > 100 µM | SNB-75 99.8 µM | SR > 100 µM | SW-620 > 100 µM | T47D > 100 µM | TK-10 > 100 µM | U-251 > 100 µM | UACC-257 > 100 µM | UACC-62 24.2 µM | UO-31 52.6 µM
21.8 µM: HCT-15

CC(=O)N(C)SCC(NC(=O)C(Cc1ccccc1)NC(=O)OCc1ccccc1)C(=O)NC(Cc1ccccc1)C(=O)NC(Cc1cn(C=O)c2ccccc12)C(=O)NC(CCCCNC(=O)OCc1ccccc1)C(=O)NC(C(=O)NC(CSN(C)C(C)=O)C(=O)NC(C(N)=O)C(C)OCc1ccccc1)C(C)OCc1ccccc1 (stereo not drawn) (Cbz-F[X34]FW(For)K(Cbz)T(Bn)[X34]T(Bn)-NH2; configuration not given here)
inactive: 786-0 24.1 µM | A549 > 100 µM | ACHN > 100 µM | BT-549 21.1 µM | CCRF-CEM > 100 µM | COLO 205 > 100 µM | DU-145 > 100 µM | EKVX > 100 µM | HCC 2998 > 100 µM | HCT-116 61.5 µM | HL-60 > 100 µM | HOP-62 82.8 µM | HOP-92 19.7 µM | HT-29 > 100 µM | Hs-578T 8.63 µM | IGROV-1 68.9 µM | K562 > 100 µM | KM12 > 100 µM | LOX IMVI > 100 µM | M14 46.9 µM | MCF7 > 100 µM | MDA-MB-231 14.7 µM | MDA-MB-435 > 100 µM | MDA-N > 100 µM | MOLT-4 > 100 µM | Malme-3M 40.4 µM | NCI-H226 > 100 µM | NCI-H23 32 µM | NCI-H460 > 100 µM | NCI-H522 87.9 µM | NCI/ADR-RES > 100 µM | OVCAR-3 > 100 µM | OVCAR-4 54.2 µM | OVCAR-5 > 100 µM | OVCAR-8 26.1 µM | PC-3 > 100 µM | RPMI-8226 > 100 µM | RXF 393 14.6 µM | SF-268 > 100 µM | SF-295 16.1 µM | SF-539 44 µM | SK-MEL-28 > 100 µM | SK-MEL-2 3.77 µM | SK-MEL-5 > 100 µM | SK-OV-3 33.2 µM | SN12C > 100 µM | SNB-19 18.7 µM | SNB-75 11.3 µM | SR > 100 µM | SW-620 > 100 µM | T47D > 100 µM | TK-10 20.6 µM | U-251 32.2 µM | UACC-257 > 100 µM | UACC-62 84.9 µM | UO-31 45.7 µM
> 100 µM: HCT-15

Cc1cc2ccc(N)nc2nc1O
> 100 µM: HCT-15
inactive: 786-0 > 100 µM | A549 > 100 µM | ACHN 52 µM | BT-549 > 100 µM | CAKI-1 > 100 µM | COLO 205 > 100 µM | DU-145 > 100 µM | EKVX > 100 µM | HCT-116 > 100 µM | HL-60 > 100 µM | HOP-92 > 100 µM | HT-29 > 100 µM | Hs-578T > 100 µM | IGROV-1 > 100 µM | KM12 > 100 µM | M14 > 100 µM | MCF7 > 100 µM | MDA-MB-231 > 100 µM | MDA-MB-435 > 100 µM | MDA-N > 100 µM | Malme-3M > 100 µM | NCI-H226 51.6 µM | NCI-H23 > 100 µM | NCI-H460 > 100 µM | NCI-H522 49.2 µM | NCI/ADR-RES > 100 µM | OVCAR-5 > 100 µM | OVCAR-8 > 100 µM | PC-3 > 100 µM | RPMI-8226 > 100 µM | RXF 393 > 100 µM | SF-268 92.9 µM | SF-295 > 100 µM | SF-539 > 100 µM | SK-MEL-2 > 100 µM | SK-MEL-5 > 100 µM | SK-OV-3 > 100 µM | SN12C > 100 µM | SNB-19 > 100 µM | SNB-75 > 100 µM | SR > 100 µM | SW-620 > 100 µM | T47D > 100 µM | TK-10 > 100 µM | U-251 99.1 µM | UACC-257 > 100 µM | UACC-62 > 100 µM | UO-31 > 100 µM

N#CCc1nc(-c2cc3ccc(O)cc3oc2=O)cs1
inactive: 786-0 > 100 µM | A549 55 µM | ACHN 57.9 µM | BT-549 25.2 µM | CAKI-1 > 100 µM | CCRF-CEM 38.7 µM | COLO 205 > 100 µM | DU-145 83.4 µM | EKVX 63 µM | HCC 2998 87.1 µM | HCT-116 53.1 µM | HL-60 29.2 µM | HOP-62 > 100 µM | HOP-92 > 100 µM | HT-29 72.9 µM | Hs-578T 66.1 µM | IGROV-1 49.1 µM | K562 31.5 µM | KM12 28.5 µM | LOX IMVI 46.2 µM | M14 46.5 µM | MCF7 47.6 µM | MDA-MB-231 95.1 µM | MDA-MB-435 33.1 µM | MDA-N 48.9 µM | MOLT-4 37.9 µM | Malme-3M > 100 µM | NCI-H226 53.6 µM | NCI-H460 50 µM | NCI-H522 > 100 µM | NCI/ADR-RES > 100 µM | OVCAR-4 43.4 µM | OVCAR-5 > 100 µM | OVCAR-8 > 100 µM | PC-3 34.3 µM | RPMI-8226 25.7 µM | RXF 393 84.7 µM | SF-268 83.2 µM | SF-295 33.2 µM | SF-539 69.3 µM | SK-MEL-28 35.2 µM | SK-MEL-2 27.2 µM | SK-MEL-5 38.7 µM | SK-OV-3 73.6 µM | SN12C 54.8 µM | SNB-19 > 100 µM | SNB-75 57 µM | SR 29.4 µM | SW-620 39.6 µM | T47D 36.7 µM | TK-10 > 100 µM | U-251 45.8 µM | UACC-257 41.7 µM | UACC-62 22.6 µM | UO-31 37.2 µM
35.9 µM: HCT-15

— ChEMBL document CHEMBL1201862, “PubChem BioAssay data set” (2004)
